# From patent US8785425B2, “11β-hydroxyandrosta-4-ene-3-ones” (Sun Pharma Advanced Research Company Ltd., priority 2006, dated 2014)
# Marks after values point to notes of the source that are not given here.
# Experiments:
# [1] = system: Sephadex induced lung edema; assay: in vivo; conditions: SD rat
# Description: Sephadex G-200 was prepared in sterile saline (10 mg/ml) and allowed to swell for at least 3 days at room temperature. Test compounds were prepared as suspensions by grinding and sonicating the solid in chilled saline. All the compounds were administered intratracheally at 24 hrs and 2 hrs prior to intratracheal administration of Sephadex (5 mg/kg) under light ether anesthesia. Vehicle control animals were administered vehicle instead of Sephadex. At 24 hr after Sephadex instillation, lung and thymus were excised from individual animals and weighed. Wet weight of lung and thymus was corrected for 100 g of initial body weight. The percentage increase in lung weight caused by Sephadex and its inhibitions by the compounds, were calculated. The percentage inhibitions of thymus compared to vehicle control group were also calculated.
# [2] = target: T1, glucocorticoid receptors (Homo sapiens, UniProt P04150); assay: Glucocorticoid receptor binding assay ([3H]dexamethasone radioligand); conditions: HeLa cells transfected with glucocorticoid receptors
# T1 construct: host or cells: Human HeLa cells
# T1 sequence (P04150 1-777): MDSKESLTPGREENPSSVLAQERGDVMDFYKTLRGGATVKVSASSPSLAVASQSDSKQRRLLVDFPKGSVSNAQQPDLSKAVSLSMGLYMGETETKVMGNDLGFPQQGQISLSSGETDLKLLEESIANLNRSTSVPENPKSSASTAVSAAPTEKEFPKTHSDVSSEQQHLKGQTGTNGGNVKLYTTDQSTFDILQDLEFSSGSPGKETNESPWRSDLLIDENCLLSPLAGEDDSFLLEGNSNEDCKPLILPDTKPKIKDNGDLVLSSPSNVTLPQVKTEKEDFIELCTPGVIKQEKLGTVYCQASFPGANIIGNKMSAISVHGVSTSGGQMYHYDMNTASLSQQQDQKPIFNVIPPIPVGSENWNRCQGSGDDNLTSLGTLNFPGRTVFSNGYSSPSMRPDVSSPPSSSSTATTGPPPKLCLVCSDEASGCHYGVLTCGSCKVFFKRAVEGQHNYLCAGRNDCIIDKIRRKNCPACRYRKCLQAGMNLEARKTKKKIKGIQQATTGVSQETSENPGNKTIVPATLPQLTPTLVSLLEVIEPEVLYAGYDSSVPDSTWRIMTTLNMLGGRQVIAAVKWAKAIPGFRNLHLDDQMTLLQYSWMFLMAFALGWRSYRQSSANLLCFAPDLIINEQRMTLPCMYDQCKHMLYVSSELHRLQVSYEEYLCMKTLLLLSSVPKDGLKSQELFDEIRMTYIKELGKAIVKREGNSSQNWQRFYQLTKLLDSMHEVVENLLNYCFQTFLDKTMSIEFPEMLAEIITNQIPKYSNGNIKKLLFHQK
# Description: The steroid receptor binding assay were performed by MDS Pharma Services at their Taipei (Taiwan) pharmacology laboratory.
# The activity of test compounds on glucocorticoid receptor was assessed using radioligand binding assays. […] Free [^3H]dexamethasone was removed from the medium by centrifugation and concentration of receptor bound ligand was determined in the supernatant by liquid scintillation counting.
# The % inhibition was evaluated using a single concentration of test compound and the corresponding radiolabeled ligand. Results are presented as the percent inhibition of specific binding. The values are average of duplicate determinations for each concentration.
# [3] = system: croton oil induced ear edema; assay: Croton oil ear edema; type: in vivo, Mice (male, CD-1); conditions: inhibition at 1.6 μg, applied to ear, mice
# Description: Mice (male, CD-1) were made into different groups. Test compounds were dissolved in pyridine-water-acetone (4:2:14) solution […] of compound or vehicle solution was applied to the left ear of the mice. The right ear of each mouse was applied simultaneously with 10 μl of pyridine:water:acetone (4:2:14) solution. After 2 hrs of compound or vehicle application, 10 μl of croton oil solution was applied to the left ear of all animals. After 6 hr of croton oil treatment the animals were sacrificed; ears were excised and weighed separately.
# [4] = system: liver glycogen deposition; type: in vivo, Male Sprague Dawley rats; conditions: 3 mg/kg intratracheally, 2 doses 24 hrs apart, adrenalectomized rats
# Description: Male Sprague Dawley rats, weighing 190-220 g were bilaterally adrenalectomized and maintained on 0.9% saline solution throughout the experiment. On day 5th and 6th of adrenalectomy, animals were made into different groups, test compounds prepared in cold saline (sonicated for 30 min) were instilled intratracheally 2 doses@3 mg/kg, 24 hrs apart. At 15 hrs after the last treatment, animals were sacrificed and livers were excised and weighed. The glycogen content of the livers was determined by anthrone method. Briefly, a weighed quantity of liver tissue was homogenized with 5% trichloroacetic acid, supernatant mixed with ethanol and kept overnight for precipitation. The glycogen thus extracted was estimated as glucose generated after acid hydrolysis by addition of anthrone reagent at 620 nm. Glycogen content was expressed as mg/100 g liver.
# [5] = system: cotton pellet induced granuloma; assay: Cotton pellet granuloma (compound impregnated in pellet); type: in vivo; conditions: SD rats
# Description: SD rats were used for assessing anti-inflammatory activity of test compound using cotton pellet granuloma method. Sterilized cotton pellets weighing 20 mg were prepared. Test compounds were dissolved in acetone so as to get the required quantity for each cotton pellet in 500 μl. Different pellets were impregnated with 500 μl of acetone to contain required quantity of test compounds and allowed to dry. Vehicle control pellets were impregnated with 500 μl acetone. Rats were made into different groups. Two cotton pellets were surgically implanted into the scapular region of each rat. On sixth day of such implantation, pellets along with granuloma were taken out. Thymus gland was also separated from each animal and weighed. The pellets with granuloma were dried for 20 hrs at 60° C. and weighed. Mean weights of dry granuloma and thymus, body weight gain/100 g body weights were calculated.
compound,measurement,setting,value
"C[C@@H]1CC2C3C[C@H](F)C4=CC(=O)C=C[C@]4(C)[C@@]3(F)[C@@H](O)C[C@]2(C)[C@@]1(OC(=O)c1ccco1)C(=O)SC/C=C\CO (stereo partly drawn) [IB.15, S-(4-Hydroxy-(Z)-but-2-enyl) 6α,9α-difluoro-17α-[(2-furanylcarbonyl)oxy]-11β-hydroxy-16α-methyl-3-oxoandrosta-1,4-diene-17β-carbothioate]",Mean % inhibition Lung edema,[1]; dose 1000 mcg/kg intratracheally,70.3%
same,Mean % inhibition Lung edema,[1]; dose 3000 mcg/kg intratracheally,71.1%
same,inhibition at 0.01 µM,[2]; % inhibition at 10 nM,83%
"CCCCC(=O)OCC#CCSC(=O)[C@@]1(OC(=O)CC)[C@H](C)CC2C3C[C@H](F)C4=CC(=O)C=C[C@]4(C)[C@@]3(F)[C@@H](O)C[C@@]21C (stereo partly drawn) [IB.35, S-[4-n-Butylcarbonyloxy-but-2-ynyl]6α,9α-difluoro-11β-hydroxy-16α-methyl-3-oxo-17α-propionyloxyandrosta-1,4-diene-17β-carbothioate]",Mean % Inhibition (croton oil ear edema),[3],60.18^a %
"CCC(=O)O[C@]1(C(=O)SCC#CCO)[C@H](C)CC2C3C[C@H](F)C4=CC(=O)C=C[C@]4(C)[C@@]3(F)[C@@H](O)C[C@@]21C (stereo partly drawn) [IB.2, S-(4-Hydroxy-but-2-ynyl) 6α,9α-difluoro-11β-hydroxy-16α-methyl-3-oxo-17α-propionyloxyandrosta-1,4-diene-17β-carbothioate]",inhibition at 0.003 µM,[2]; % inhibition at 3 nM,55%
"C[C@@H]1C[C@H]2[C@@H]3CCC4=CC(=O)C=C[C@]4(C)[C@@]3(Cl)[C@@H](O)C[C@]2(C)[C@@]1(OC(=O)c1ccco1)C(=O)CCl [Mometasone furoate, (11β,16α)-9,21-Dichloro-17-[(2-furanylcarbonyl)oxy]-11-hydroxy-16-methylpregna-1,4-diene-3,20-dione]",% Inhibition of thymus,[4],43.51%
same,Glycogen content,[4],1117.32 mg/100 g liver
"COSC(=O)C1(OC(=O)c2ccco2)C(C)CC2C3CC(F)C4=CC(=O)C=CC4(C)C3(F)C(O)CC21C (stereo not drawn) [IC.14, 6α,9α-Difluoro-17α-[(2-furanylcarbonyl)oxy]-11β-hydroxy-16α-methyl-3-oxoandrosta-1,4-diene-17β-carbonylsulfenic acid methyl ester]",Mean % Inhibition (croton oil ear edema),[3],61.46^a %
"CCOC(=O)C(=O)OC/C=C/CSC(=O)[C@@]1(OC(=O)CC)[C@H](C)CC2C3C[C@H](F)C4=CC(=O)C=C[C@]4(C)[C@@]3(F)[C@@H](O)C[C@@]21C (stereo partly drawn) [IB.44, S-[4-(2-Ethoxy-1,2-dioxoethyl)oxy-(E)-but-2-enyl]6α,9α-difluoro-11β-hydroxy-16α-methyl-3-oxo-17α-propionyloxyandrosta-1,4-diene-17β-carbothioate]",Mean % Inhibition (croton oil ear edema),[3],75.19^a %
"CCC(=O)O[C@]1(C(=O)SC(C)(C)C(=O)c2ccccc2)[C@H](C)CC2C3C[C@H](F)C4=CC(=O)C=C[C@]4(C)[C@@]3(F)[C@@H](O)C[C@@]21C (stereo partly drawn) [IA.59, S-[1,1-Dimethyl-2-oxo-2-phenylethyl]6α,9α-difluoro-11β-hydroxy-16α-methyl-3-oxo-17α-propionyloxyandrosta-1,4-diene-17β-carbothioate]",Mean % Inhibition of Granuloma,[5]; dose 1000 mcg per pellet,76.86%
"CCC(=O)O[C@]1(C(=O)OCC(=O)c2ccccc2)[C@H](C)CC2C3C[C@H](F)C4=CC(=O)C=C[C@]4(C)[C@@]3(F)[C@@H](O)C[C@@]21C (stereo partly drawn) [IA.44, 2-Phenyl-2-oxoethyl 6α,9α-difluoro-11β-hydroxy-16α-methyl-3-oxo-17α-propionyloxyandrosta-1,4-diene-17β-carboxylate]",Mean % Inhibition of Granuloma,[5]; dose 1000 mcg per pellet,71.79%
"CC1CC2C3CC(F)C4=CC(=O)C=CC4(C)C3(F)C(O)CC2(C)C1(OC(=O)c1ccco1)C(=O)SOCc1ccc(C(F)(F)F)cc1 (stereo not drawn) [IC.6, 6α,9α-Difluoro-17α-[(2-furanylcarbonyl)oxy]-11β-hydroxy-16α-methyl-3-oxoandrosta-1,4-diene-17β-carbonylsulfenic acid (4-trifluoromethylphenyl)methyl ester.]",Mean % Inhibition of Granuloma,[5]; dose 1000 mcg per pellet,84.96%
same,Thymus wt. (% Decrease),[5]; dose 1000 mcg per pellet,10.96%
"CCC(=O)O[C@]1(C(=O)SCC(=O)c2ccc(C(F)(F)F)cc2)[C@H](C)CC2C3C[C@H](F)C4=CC(=O)C=C[C@]4(C)[C@@]3(F)[C@@H](O)C[C@@]21C (stereo partly drawn) [IA.38, S-[2-Oxo-2-(4-trifluoromethylphenyl)ethyl]6α,9α-difluoro-11β-hydroxy-16α-methyl-3-oxo-17α-propionyloxyandrosta-1,4-diene-17β-carbothioate]",Mean % Inhibition of Granuloma,[5]; dose 10 mcg per pellet,67.17%
"CC1CC2C3CCC4=CC(=O)C=CC4(C)C3(F)C(O)CC2(C)C1(OC(=O)c1ccco1)C(=O)SOCc1ccc(F)cc1 (stereo not drawn) [IC.9, 9α-Fluoro-17α-[(2-furanylcarbonyl)oxy]-11β-hydroxy-16α-methyl-3-oxoandrosta-1,4-diene-17β-carbonylsulfenic acid (4-fluorophenyl)methyl ester.]",Mean % Inhibition of Granuloma,[5]; dose 3 mcg per pellet,34.3%
same,Thymus wt. (% Decrease),[5]; dose 3 mcg per pellet,2.51%
"6α,9α-Difluoro-11β-hydroxy-16α-methyl-3-oxo-17α-propionyloxyandrosta-1,4-diene-17β-carbonylsulfenic acid (4-trifluoromethylphenyl)methyl eseter. [IC.8]",Mean % Inhibition of Granuloma,[5]; dose 3 mcg per pellet,45.15%
same,Thymus wt. (% Decrease),[5]; dose 3 mcg per pellet,3.38%
"CC1CC2C3CC(F)C4=CC(=O)C=CC4(C)C3(F)C(O)CC2(C)C1(OC(=O)c1ccco1)C(=O)SOCc1ccc(Cl)cc1 (stereo not drawn) [IC.7, 6α,9α-Difluoro-17α-[(2-furanylcarbonyl)oxy]-11β-hydroxy-16α-methyl-3-oxoandrosta-1,4-diene-17β-carbonylsulfenic acid (4-chlorophenyl)methyl ester.]",Glucocorticoid receptor binding % inhibition,[2]; % inhibition at 10 nM,41^b %
"C[C@@H]1CC2C3C[C@H](F)C4=CC(=O)C=C[C@]4(C)[C@@]3(F)[C@@H](O)C[C@]2(C)[C@@]1(OC(=O)c1ccco1)C(=O)SCC#CCOC(=O)N(C)C (stereo partly drawn) [IB.103, S-[4-(N,N-Dimethylaminocarbonyloxy)-but-2-ynyl]6α,9α-difluoro-17α-[(2-furanyl-carbonyl)oxy]-11β-hydroxy-16α-methyl-3-oxoandrosta-1,4-diene-17β-carbothioate]",inhibition at 0.01 µM,[2]; % inhibition at 10 nM,78%
"CCC(=O)O[C@]1(C(=O)SC)[C@H](C)C[C@H]2[C@@H]3C[C@H](F)C4=CC(=O)C=C[C@]4(C)[C@@]3(F)[C@@H](O)C[C@@]21C [IC.13, 6α,9α-Difluoro-11β-hydroxy-16α-methyl-3-oxo-17α-propionyloxyandrosta-1,4-diene-17β-carbonylsulfenic acid methyl ester.]",Mean % Inhibition (croton oil ear edema),[3],41.79^a %
